Data: US7476679B2, “Octahydroisoquinoline compounds as opioid receptor modulators” (Research Triangle Institute, priority 2005, dated 2009)
Read-outs that look alike come from different tables or passages of the source.

Tests used:
Format in all cases: biochemical
[1] = target: T1, human mu opioid receptor (Homo sapiens, UniProt P35372); assay: Inhibition of agonist (DAMGO) stimulated [35S]GTPγS binding, apparent affinity (Ke)
T1 construct: expressed in transfected cells; host or cells: CHO cells (membrane homogenates)
T1 sequence (P35372 whole entry): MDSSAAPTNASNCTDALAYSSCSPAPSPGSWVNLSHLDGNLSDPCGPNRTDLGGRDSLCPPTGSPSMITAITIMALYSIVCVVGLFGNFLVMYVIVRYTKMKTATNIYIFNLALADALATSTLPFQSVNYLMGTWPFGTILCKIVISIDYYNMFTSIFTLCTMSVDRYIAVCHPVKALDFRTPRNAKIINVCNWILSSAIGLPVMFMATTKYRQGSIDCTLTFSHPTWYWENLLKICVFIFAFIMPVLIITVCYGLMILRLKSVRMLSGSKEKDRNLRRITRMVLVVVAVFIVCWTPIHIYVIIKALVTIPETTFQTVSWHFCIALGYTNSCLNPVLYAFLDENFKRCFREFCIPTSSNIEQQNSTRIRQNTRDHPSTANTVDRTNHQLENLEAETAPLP
Method: (§1) Determination of apparent affinity (Ke). The ability of a single concentration of test compound to shift an agonist dose response curve to the right was used to determine its Ke. Agonist activity was determined using [^35S]GTP-γ-S binding in CHO cell membrane homogenates expressing either the human mu, kappa or delta opioid receptor. The subtype selective agonists (D-Ala^2, MePhe^4, Gly-ol^5)enkephalin (DAMGO, mu receptor), D-Pen2,D-Pen5]-enkephalin (DPDPE, delta receptor) or U69,593 (kappa receptor) were run as appropriate. The assays were run in triplicate in 1.4 mL polypropylene tubes (Matrix Technologies, Hudson, N.H.) in 96-well format. Each assay tube contained membrane homogenate, one of seven concentrations of agonist or agonist+test compound, 0.1 nM [^35S]GTP-γ-S and 10 μM GDP in a 50 mM HEPES buffer (pH 7.4). Basal [^35S]GTP-γ-S binding was determined in samples without agonist or test compound. All samples were incubated at room temperature for one hour after which bound radioligand was separated from free via rapid vacuum filtration over GF-B filters with a Brandel Scientific (Gaithersburg, Md.) 96-well harvester. Bound radioactivity was determined with a TopCount 12-detector instrument (Packard Instruments) using standard scintillation counting techniques. The binding data from each assay plate were normalized to basal binding prior to analysis. The EC50s were calculated from a three-parameter logistic curve fit to the data with Prism (version 3.0, GraphPad Software, Inc., San Diego, Calif.).

[2] = target: T2, human delta opioid receptor (Homo sapiens, UniProt P41143); assay: Inhibition of agonist (DPDPE) stimulated [35S]GTPγS binding, apparent affinity (Ke)
T2 construct: expressed in transfected cells; host or cells: CHO cells (membrane homogenates)
T2 sequence (P41143 whole entry): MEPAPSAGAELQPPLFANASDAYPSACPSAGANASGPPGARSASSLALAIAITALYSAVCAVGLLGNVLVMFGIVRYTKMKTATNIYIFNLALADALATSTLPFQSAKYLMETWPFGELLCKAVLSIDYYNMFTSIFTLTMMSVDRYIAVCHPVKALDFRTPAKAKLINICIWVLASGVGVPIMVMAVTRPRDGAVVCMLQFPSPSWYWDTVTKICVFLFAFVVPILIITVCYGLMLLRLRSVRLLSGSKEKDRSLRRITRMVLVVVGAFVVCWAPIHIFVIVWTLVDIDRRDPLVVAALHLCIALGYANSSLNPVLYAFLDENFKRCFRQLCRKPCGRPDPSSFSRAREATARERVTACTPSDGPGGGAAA
Method: as §1

[3] = target: T3, human kappa opioid receptor (Homo sapiens, UniProt P41145); assay: Inhibition of agonist (U69,593) stimulated [35S]GTPγS binding, apparent affinity (Ke); conditions: for δ/κ / μ/κ: ratio of Ke values; for δ/κ: δ over κ; for μ/κ: μ over κ
T3 construct: expressed in transfected cells; host or cells: CHO cells (membrane homogenates)
T3 sequence (P41145 whole entry): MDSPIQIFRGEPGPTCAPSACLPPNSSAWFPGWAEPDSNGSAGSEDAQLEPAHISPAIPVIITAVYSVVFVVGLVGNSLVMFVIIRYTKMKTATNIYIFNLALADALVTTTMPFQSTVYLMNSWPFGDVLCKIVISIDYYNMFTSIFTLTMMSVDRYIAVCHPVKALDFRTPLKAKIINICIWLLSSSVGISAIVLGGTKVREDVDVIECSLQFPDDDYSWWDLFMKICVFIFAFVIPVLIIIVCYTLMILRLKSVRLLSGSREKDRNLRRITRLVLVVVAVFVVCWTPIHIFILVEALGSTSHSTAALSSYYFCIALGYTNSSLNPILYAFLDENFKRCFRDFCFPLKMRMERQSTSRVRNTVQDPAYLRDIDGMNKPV
Method: as §1

[4] = cloned human μ receptor, CHO cell membrane homogenates, agonist DAMGO, 10 μM GDP, mean ± SE, read-out: μ, DAMGO Ke
[5] = cloned human κ receptor, CHO cell membrane homogenates, agonist U69,593, 10 μM GDP, mean ± SE, read-out: κ, U69,593 Ke
[6] = cloned human μ receptor, CHO cell membrane homogenates, agonist DAMGO, 10 μM GDP, mean ± SE
[7] = cloned human δ receptor, CHO cell membrane homogenates, agonist DPDPE, 10 μM GDP, mean ± SE
[8] = cloned human κ receptor, CHO cell membrane homogenates, agonist U69,593, 10 μM GDP, mean ± SE

Row | Structure (SMILES) | Kb [1, 4] [nM] | Kb [2] [nM] | Kb [3, 5] [nM] | δ/κ [3] | μ/κ [3] | μ, DAMGO Ke [1, 6] [nM] | δ, DPDPE Ke [2, 7] [nM] | κ, U69,593 Ke [3, 8] [nM] | Kb [1] [nM] | Kb ([2]; cloned human δ receptor, CHO cell membrane homogenates, agonist DPDPE, 10 μM GDP, mean ± SE, read-out: δ, DPDPE Ke) [nM] | Kb [3] [nM]
1 | CC12CCC(NC(=O)C3(c4ccccc4)CCCC3)CC1(c1cccc(O)c1)CCN(CCCc1ccccc1)C2 (centres unmarked) [6f, 1-Phenylcyclopentanecarboxylic Acid [4a-(3-Hydroxyphenyl)-8a-methyl-2-(3-phenylpropyl)octahydroisoquinolin-6-yl]amide] | 1.46 ± 0.15 | 6.46 ± 2.3 | 1.93 ± 0.48 | 3 | 0.8 |  |  |  |  |  | 
2 | CC12CCC(NC(=O)CCN3CCCCC3)CC1(c1cccc(O)c1)CCN(CCCc1ccccc1)C2 (centres unmarked) [6d, N-(4a-(3-Hydroxyphenyl)-8a-methyl-2-(3-phenylpropyl)octahydroisoquinolin-6-yl]-3-piperidin-1-yl-propionamide] | 41.7 ± 7.8 | 12.3 ± 3.1 | 0.27 ± 0.08 | 46 | 154 |  |  |  |  |  | 
3 | CC12CCCCC1(c1cccc(O)c1)CCN(CCCc1ccccc1)C2 (centres unmarked) [6c, N-(3-Phenpropyl)-4a-(3-hydroxyphenyl)-8a-methyloctahydroisoquinoline] |  |  |  | 12 | 0.8 | 0.80 ± 0.10 | 12.4 ± 2.9 | 1.03 ± 0.14 |  |  | 
4 | CC12CCCCC1(c1cccc(O)c1)CCN(CCc1ccccc1)C2 (centres unmarked) [6b, N-Phenethyl-4a-(3′-hydroxyphenyl)-8a-methyloctahydroisoquinoline] | 0.84 ± 0.22 | 18.9 ± 5.2 | 2.84 ± 0.97 | 7 | 0.3 |  |  |  |  |  | 
5 | CC12CCC(NC(=O)CCN3CCc4ccccc4C3)CC1(c1cccc(O)c1)CCN(CCCc1ccccc1)C2 (centres unmarked) [6e, 3-(3,4-Dihydro-1H-isoquinolin-2-yl)-N-(4a-(3-hydroxyphenyl)-8a-methyl-2-(3-phenylpropyl)octahydroisoquinolin-6-yl]propionamide] | 9.82 ± 3.7 | 4.56 ± 1.2 | 0.22 ± 0.02 | 21 | 45 |  |  |  |  |  | 
6 | CN1CCC2(c3cccc(O)c3)CCCCC2(C)C1 (centres unmarked) [6a, N-Methyl-4a-(3-hydroxyphenyl)-8a-methyloctahydroisoquinoline] |  |  |  | 141 | 29 |  |  |  | 99.4 ± 28.3 | 477 ± 137 | 3.37 ± 0.47
7 | CC12CCC(NC(=O)c3cc4ccccc4s3)CC1(c1cccc(O)c1)CCN(CCCc1ccccc1)C2 (centres unmarked) [6g] |  |  |  | 2 | 25 | 11.3 ± 2.0 | 1.01 ± 0.22 | 0.46 ± 0.13 |  |  | 
